Literature values in patent US20010039262A1, “Methods and compositions for the treatment of cardiac indications” (priority 2000, published 2001).

How the values were obtained:
patients with severe HF = conditions: spironolactone administered along with captopril and furosemide
[1] = tested on: patients with stable Congestive Heart Failure (NYHA class II-IV)
[2] = heart failure patients treated with spironolactone

**Q.** With CC(=O)S[C@@H]1CC2=CC(=O)CC[C@]2(C)[C@H]2CC[C@@]3(C)[C@@H](CC[C@@]34CCC(=O)O4)[C@H]12 [spironolactone] as the molecule, how does the “reduction of morbidity and mortality” value (patients with severe HF) read?
**A.** 27%

**Q.** What about the morbidity ([1]; 31 patients with stable CHF (NYHA class II-IV), spironolactone vs placebo in addition to diuretics and ACE inhibitor) of the same molecule?
**A.** lowered

**Q.** What about the “early morning rise in heart rate” value [1, 2] of the same molecule?
**A.** reduced

**Q.** And the heart rate variability [1, 2]?
**A.** improved

**Q.** What about the vascular collagen turnover [1, 2] of the same molecule?
**A.** reduced

**Q.** And the “reduction in myocardial fibrosis activity” value ([1]; spironolactone 50-100 mg/day in addition to diuretics and ACE inhibitor, 8 weeks of active therapy)?
**A.** approximately 20%
